Experimental findings from ChEMBL document CHEMBL1140941 (J Med Chem, 2009) are described below.

The target of data set [1] is T1, Progesterone receptor (Homo sapiens) (UniProt P06401).
T1 sequence (whole entry): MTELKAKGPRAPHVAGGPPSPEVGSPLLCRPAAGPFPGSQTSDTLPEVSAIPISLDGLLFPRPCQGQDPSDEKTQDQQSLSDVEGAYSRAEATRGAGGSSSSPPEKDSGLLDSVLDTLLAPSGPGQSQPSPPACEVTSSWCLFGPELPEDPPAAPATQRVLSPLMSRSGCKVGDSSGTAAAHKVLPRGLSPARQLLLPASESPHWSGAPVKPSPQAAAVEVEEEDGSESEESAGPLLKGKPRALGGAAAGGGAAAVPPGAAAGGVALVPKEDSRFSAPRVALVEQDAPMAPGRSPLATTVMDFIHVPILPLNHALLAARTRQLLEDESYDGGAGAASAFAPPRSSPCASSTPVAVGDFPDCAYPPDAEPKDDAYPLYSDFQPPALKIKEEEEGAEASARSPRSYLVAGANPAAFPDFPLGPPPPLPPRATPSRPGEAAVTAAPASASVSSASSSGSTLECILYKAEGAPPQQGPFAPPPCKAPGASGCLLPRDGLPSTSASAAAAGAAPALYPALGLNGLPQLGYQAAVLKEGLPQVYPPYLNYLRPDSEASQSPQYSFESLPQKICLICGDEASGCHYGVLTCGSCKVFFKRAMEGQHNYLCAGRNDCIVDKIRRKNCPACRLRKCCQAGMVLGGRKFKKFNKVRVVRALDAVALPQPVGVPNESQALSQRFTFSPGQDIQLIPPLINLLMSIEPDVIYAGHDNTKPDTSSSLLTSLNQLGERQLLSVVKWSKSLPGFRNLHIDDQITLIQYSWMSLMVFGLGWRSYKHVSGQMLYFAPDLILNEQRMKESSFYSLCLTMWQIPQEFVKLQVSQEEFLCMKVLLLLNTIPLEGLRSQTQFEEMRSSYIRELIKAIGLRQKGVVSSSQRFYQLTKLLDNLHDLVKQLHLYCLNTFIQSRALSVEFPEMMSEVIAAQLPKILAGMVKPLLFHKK
Briefly: Antagonist activity at gal-PR expressed in african green monkey CV1 cells co-expressing MH100 at 10 uM by luciferase reporter gene assay. It is filed as functional, cell-based. Conditions: CV-1.

The nature of data set [2]: AUC (0 to t) in CD rat at 3 mg/kg, iv. More on the design: dose 3 mg/kg, route intravenous. It is filed as ADME, organism-based. Particulars: plasma.
For data set [3], the system named is Mus musculus. Briefly: Reduction of plasma total cholesterol level in western diet-induced hyperlipidemia LDLR knockout mouse model at 3 mg/kg, po administered for 6 weeks. It is filed as functional. More on the design: scale not given: the % may be the effect or the level left.
For data set [4], the target named is Glucocorticoid receptor (Homo sapiens, UniProt P04150). Briefly: Antagonist activity at gal-GR expressed in african green monkey CV1 cells co-expressing MH100 by luciferase reporter gene assay. Format: functional, cell-based, CV-1. A general note: A reporter such as luciferase makes a cellular process visible.
Sequence of Glucocorticoid receptor (P04150 whole entry): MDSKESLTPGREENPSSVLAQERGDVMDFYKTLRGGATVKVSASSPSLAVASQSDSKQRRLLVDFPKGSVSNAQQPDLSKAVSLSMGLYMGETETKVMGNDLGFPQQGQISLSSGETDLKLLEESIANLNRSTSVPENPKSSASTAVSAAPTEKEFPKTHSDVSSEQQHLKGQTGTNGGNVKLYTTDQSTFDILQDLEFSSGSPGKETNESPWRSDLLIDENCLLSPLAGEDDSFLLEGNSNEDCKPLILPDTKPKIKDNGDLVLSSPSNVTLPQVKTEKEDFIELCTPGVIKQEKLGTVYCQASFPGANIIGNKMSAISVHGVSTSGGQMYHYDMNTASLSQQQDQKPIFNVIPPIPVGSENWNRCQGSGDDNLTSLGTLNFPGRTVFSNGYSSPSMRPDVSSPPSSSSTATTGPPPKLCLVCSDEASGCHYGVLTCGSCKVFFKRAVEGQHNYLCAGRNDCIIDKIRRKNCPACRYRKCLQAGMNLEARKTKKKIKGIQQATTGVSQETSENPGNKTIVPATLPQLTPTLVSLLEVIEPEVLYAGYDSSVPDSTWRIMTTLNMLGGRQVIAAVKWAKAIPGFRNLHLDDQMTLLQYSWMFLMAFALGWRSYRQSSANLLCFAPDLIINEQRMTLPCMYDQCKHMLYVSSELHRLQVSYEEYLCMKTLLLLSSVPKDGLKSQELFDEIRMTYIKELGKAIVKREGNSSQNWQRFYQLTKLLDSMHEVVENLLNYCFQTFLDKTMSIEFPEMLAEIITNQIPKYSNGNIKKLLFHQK
Data set [5] in a line: Tmax in CD rat at 3 mg/kg, iv. It is filed as ADME, organism-based. Details: dose 3 mg/kg, route intravenous. Particulars: in vivo.
Data set [6] concerns the target T2, Mineralocorticoid receptor (Homo sapiens) (UniProt P08235).
T2 sequence (whole entry): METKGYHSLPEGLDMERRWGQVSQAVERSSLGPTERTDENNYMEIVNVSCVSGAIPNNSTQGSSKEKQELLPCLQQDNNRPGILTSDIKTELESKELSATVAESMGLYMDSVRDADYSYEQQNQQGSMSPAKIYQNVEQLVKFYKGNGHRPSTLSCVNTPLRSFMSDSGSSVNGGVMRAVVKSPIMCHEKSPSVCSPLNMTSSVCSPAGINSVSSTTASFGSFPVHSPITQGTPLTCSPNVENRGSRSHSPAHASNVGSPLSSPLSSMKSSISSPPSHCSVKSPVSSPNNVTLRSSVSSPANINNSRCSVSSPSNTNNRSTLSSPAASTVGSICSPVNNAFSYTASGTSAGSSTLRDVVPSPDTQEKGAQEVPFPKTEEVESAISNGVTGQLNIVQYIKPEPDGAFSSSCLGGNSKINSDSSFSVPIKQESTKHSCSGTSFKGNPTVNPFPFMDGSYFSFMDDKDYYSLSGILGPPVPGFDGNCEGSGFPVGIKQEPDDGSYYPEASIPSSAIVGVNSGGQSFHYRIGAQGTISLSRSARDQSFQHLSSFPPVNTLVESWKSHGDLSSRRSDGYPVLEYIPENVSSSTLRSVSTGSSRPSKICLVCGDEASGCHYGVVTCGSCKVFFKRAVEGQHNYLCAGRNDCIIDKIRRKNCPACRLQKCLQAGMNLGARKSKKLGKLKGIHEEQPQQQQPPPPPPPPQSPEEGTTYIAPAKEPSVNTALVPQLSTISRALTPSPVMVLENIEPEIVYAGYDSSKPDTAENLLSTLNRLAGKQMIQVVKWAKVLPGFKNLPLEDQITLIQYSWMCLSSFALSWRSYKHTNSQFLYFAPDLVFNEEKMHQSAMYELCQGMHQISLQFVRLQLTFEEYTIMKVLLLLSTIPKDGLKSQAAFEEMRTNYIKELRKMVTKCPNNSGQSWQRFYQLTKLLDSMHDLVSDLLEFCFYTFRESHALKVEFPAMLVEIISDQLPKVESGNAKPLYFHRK
Briefly: Antagonist activity at gal-MR expressed in african green monkey CV1 cells co-expressing MH100 at 10 uM by luciferase reporter gene assay. Format: functional, cell-based. Conditions: CV-1.

Data set [7] concerns Mus musculus. Briefly: Reduction of plasma triglyceride level in C57BL/6 mouse at 10 mg/kg, po administered for 7 days measured after 3 hrs. It is filed as ADME, organism-based. Details: dose 10 mg/kg, route oral. Conditions: in vivo.
Data set [8] deals with Nuclear receptor subfamily 1 group I member 2 (Homo sapiens, UniProt O75469). Briefly: Agonist activity at SXR expressed in african green monkey CV1 cells co-expressing MH100 up to 10 uM by luciferase reporter gene assay relative to control. It is filed as functional, cell-based. Conditions: cv-1.
Sequence of Nuclear receptor subfamily 1 group I member 2 (O75469 whole entry): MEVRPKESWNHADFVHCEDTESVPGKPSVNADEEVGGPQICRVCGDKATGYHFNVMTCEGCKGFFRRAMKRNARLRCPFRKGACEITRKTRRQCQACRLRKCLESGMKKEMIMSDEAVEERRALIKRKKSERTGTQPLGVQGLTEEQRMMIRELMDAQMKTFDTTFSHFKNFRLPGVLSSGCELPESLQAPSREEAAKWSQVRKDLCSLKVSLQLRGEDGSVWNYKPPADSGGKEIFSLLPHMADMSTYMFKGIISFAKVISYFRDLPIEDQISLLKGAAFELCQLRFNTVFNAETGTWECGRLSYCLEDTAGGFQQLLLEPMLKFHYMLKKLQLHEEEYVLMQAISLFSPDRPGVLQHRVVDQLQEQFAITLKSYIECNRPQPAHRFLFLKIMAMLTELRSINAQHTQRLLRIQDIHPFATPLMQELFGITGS
Data set [9] relates to Mus musculus. Briefly: Reduction of plasma total cholesterol level in C57BL/6 mouse at 10 mg/kg, po administered for 7 days measured after 3 hrs. Details: dose 10 mg/kg, route oral. Particulars: in vivo. It is filed as ADME, organism-based.
Data set [10] can be described thus: Cmax in CD rat at 3 mg/kg, po. Format: ADME, organism-based. Particulars: in vivo. Details: dose 3 mg/kg, route oral.
Data set [11] deals with T2, Mineralocorticoid receptor (Homo sapiens). Briefly: Agonist activity at gal-MR expressed in african green monkey CV1 cells co-expressing MH100 up to 10 uM by luciferase reporter gene assay relative to control. Format: functional, cell-based. Particulars: CV-1.
For data set [12], the target named is Estrogen receptor (Homo sapiens, UniProt P03372). Briefly: Antagonist activity at gal-ERalpha expressed in african green monkey CV1 cells co-expressing MH100 by luciferase reporter gene assay. Format: functional, cell-based, CV-1.
Sequence of Estrogen receptor (P03372 whole entry): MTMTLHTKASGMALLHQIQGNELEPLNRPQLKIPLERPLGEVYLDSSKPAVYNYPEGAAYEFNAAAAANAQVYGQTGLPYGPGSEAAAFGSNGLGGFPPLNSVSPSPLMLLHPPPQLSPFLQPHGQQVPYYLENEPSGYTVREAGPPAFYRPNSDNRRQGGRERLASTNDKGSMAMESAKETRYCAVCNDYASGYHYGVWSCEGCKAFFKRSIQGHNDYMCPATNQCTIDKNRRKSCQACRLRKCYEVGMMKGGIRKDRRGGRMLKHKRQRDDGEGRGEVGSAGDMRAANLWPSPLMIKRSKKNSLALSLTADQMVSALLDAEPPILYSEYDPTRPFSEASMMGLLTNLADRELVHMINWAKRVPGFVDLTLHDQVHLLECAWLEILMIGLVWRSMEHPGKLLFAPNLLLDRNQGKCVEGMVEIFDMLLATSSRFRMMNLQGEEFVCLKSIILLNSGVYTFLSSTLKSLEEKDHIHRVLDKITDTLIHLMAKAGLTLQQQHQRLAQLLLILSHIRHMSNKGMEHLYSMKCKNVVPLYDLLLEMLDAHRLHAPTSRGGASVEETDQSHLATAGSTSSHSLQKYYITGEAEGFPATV

Calls of active or inactive are those of the source. The rule behind the calls is not given here.

With `CC(C)OC(=O)C1=CN(C(=O)c2ccc(F)c(F)c2)CC(C)(C)c2c1[nH]c1ccccc21` [TUROFEXORATE ISOPROPYL], the inhibition (in general, the percentage by which the read-out fell short of the control) is 14% in [1] and 27% in data set [6]. Moreover, in data set [2], the AUC(0-t) (as a rule, the area under the concentration-time curve up to a stated or last time point) was determined as 19.1 µM·h. The Activity is 50% in [3], 62 mg/dL in data set [7], “Not Active” in [8] and 78.1 mg/dL in data set [9]. The IC50 in data set [4] and in data set [12] was 10 µM throughout. In addition, in data set [5], the Tmax (as a rule, the time at which the peak concentration occurs) amounted to 1.2 min. In addition, the Cmax – broadly, the maximum level reached in the sampled fluid or tissue – in [10] turned out to be 500 nM. Moreover, in [11], the outcome was inactive.
